According to paper PMC9787607, “A Novel Protocol for the Synthesis of 1,2,4-Oxadiazoles Active against Trypanosomatids and Drug-Resistant Leukemia Cell Lines” (Tropical Medicine and Infectious Disease, 2022):

Columns and labels:
[1] = biological target: T1, human serum albumin (HSA) (Homo sapiens, UniProt P02768); assay: Competitive binding with HSA site probes (warfarin, ibuprofen, digitoxin)
T1 construct: purchased Sigma-Aldrich A3782-1G
Description: Competitive binding studies were carried out using site probes for sites I, II, and III, i.e., warfarin, ibuprofen, and digitoxin, respectively. The HSA and site probes were used at a fixed concentration (1.0 × 10^−5 M), and the fluorescence quenching titration with compound 23 was performed as described previously for the steady-state fluorescence quenching procedure at 310 K.

[2] = biological target: T1, human serum albumin (HSA); assay: Time-resolved fluorescence of HSA; type: binding; conditions: HSA 1.0 × 10^−5 M with 23 1.32 × 10^−5 M, pH 7.4, 296 K
Description: Time-resolved fluorescence measurements were performed on a model FL920 CD fluorimeter from Edinburgh Instruments equipped with an EPL laser (λexc = 280 ± 10 nm; pulse of 850 ps with energy of 1.8 µW/pulse; monitoring emission at 340 nm). The time-resolved fluorescence decays of a 3.0 mL HSA solution (1.0 × 10^−5 M, in PBS) were obtained without and with compound 23 (1.32 × 10^−5 M).

[3] = biological target: T1, human serum albumin (HSA); assay: Steady-state fluorescence quenching of HSA; type: binding; conditions: for KSV (Stern-Volmer quenching constant) / kq (bimolecular quenching rate constant) / n (number of binding sites): PBS
Description: Steady-state fluorescence and circular dichroism (CD) spectra were measured on a Jasco J-815 optical spectrometer employing a Jasco PFD-425S15F thermostatic cuvette holder. All spectra were recorded with appropriate background corrections. For the steady-state fluorescence data, inner filter corrections were performed, following the literature.
The steady-state fluorescence measurements were carried out in the 290–450 nm range (λexc = 280 nm) at 289, 296, 303, 310, and 317 K. The addition of compound 23 to a 3.0 mL HSA solution (1.0 × 10^−5 M, in PBS) was done manually, achieving final concentrations of 0.17, 0.33, 0.50, 0.66, 0.83, 0.99, 1.15, and 1.32 × 10^−5 M. To obtain quantitative information on the binding capacity of 23 to HSA, Stern-Volmer, double-logarithmic, van’t Hoff, and Gibbs’ free energy analysis were applied following our previous works.

T1 sequence (P02768 25-609): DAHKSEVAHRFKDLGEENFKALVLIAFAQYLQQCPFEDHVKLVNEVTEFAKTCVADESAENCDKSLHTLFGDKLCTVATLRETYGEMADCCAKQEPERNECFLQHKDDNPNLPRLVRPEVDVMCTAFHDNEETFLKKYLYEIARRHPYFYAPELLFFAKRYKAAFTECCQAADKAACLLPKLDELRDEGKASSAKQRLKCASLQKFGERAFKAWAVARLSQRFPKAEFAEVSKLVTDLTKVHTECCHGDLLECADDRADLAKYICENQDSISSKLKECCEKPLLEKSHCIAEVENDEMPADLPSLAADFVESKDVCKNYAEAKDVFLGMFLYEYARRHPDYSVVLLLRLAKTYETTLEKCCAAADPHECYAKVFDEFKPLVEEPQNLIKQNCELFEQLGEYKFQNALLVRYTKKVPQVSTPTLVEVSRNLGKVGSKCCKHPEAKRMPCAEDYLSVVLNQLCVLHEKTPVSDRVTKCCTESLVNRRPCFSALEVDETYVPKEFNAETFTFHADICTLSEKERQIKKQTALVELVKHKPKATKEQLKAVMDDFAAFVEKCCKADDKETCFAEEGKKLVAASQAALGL

COc1cc(/C=C/c2nc(-c3cc(OC)c(OC)c(OC)c3)no2)cc(OC)c1OC [Compound 23, (E)-3-(3,4,5-trimethoxyphenyl)-5-[2-(3,4,5-trimethoxyphenyl)-vinyl]-1,2,4-oxadiazole]
decrease of the KSV value in the presence of warfarin ([1]; 310 K): 14%
main binding site in HSA ([1]; competitive binding with site probes): subdomain IIA (site I)
%Relative τ1 of HSA:23 [2]: 23.5%
%Relative τ2 of HSA:23 [2]: 76.5%
τ1 of HSA:23 [2]: 1.59 ± 0.11 ns
τ2 of HSA:23 [2]: 5.70 ± 0.12 ns
τaverage of HSA:23 [2]: 4.73 ± 0.11 ns
ΔG° ([3]; 289 K): −28.7 kJmol^−1
KSV (Stern-Volmer quenching constant) ([3]; 289 K): 1.56 ± 0.02 × 10^5 M^−1
kq (bimolecular quenching rate constant) ([3]; 289 K): 3.22e+13 M⁻¹ s⁻¹
n (number of binding sites) ([3]; 289 K): 0.992 ± 0.01
KSV values, order of magnitude ([3]; 289–317 K): ~10^5 M^−1
kq values, order of magnitude ([3]; 289–317 K): ~10^13 M^−1s^−1
ΔG° ([3]; 296 K): −29.2 kJmol^−1
KSV (Stern-Volmer quenching constant) ([3]; 296 K): 1.44 ± 0.02 × 10^5 M^−1
kq (bimolecular quenching rate constant) ([3]; 296 K): 2.97e+13 M⁻¹ s⁻¹
n (number of binding sites) ([3]; 296 K): 1.04 ± 0.01
ΔG° ([3]; 303 K): −29.7 kJmol^−1
KSV (Stern-Volmer quenching constant) ([3]; 303 K): 1.31 ± 0.07 × 10^5 M^−1
kq (bimolecular quenching rate constant) ([3]; 303 K): 2.7e+13 M⁻¹ s⁻¹
n (number of binding sites) ([3]; 303 K): 1.09 ± 0.01
ΔG° ([3]; 310 K): −30.2 kJmol^−1
KSV (Stern-Volmer quenching constant) ([3]; 310 K): 1.22 ± 0.01 × 10^5 M^−1
kq (bimolecular quenching rate constant) ([3]; 310 K): 2.52e+13 M⁻¹ s⁻¹
n (number of binding sites) ([3]; 310 K): 1.02 ± 0.01
ΔG° ([3]; 317 K): −30.7 kJmol^−1
KSV (Stern-Volmer quenching constant) ([3]; 317 K): 1.19 ± 0.02 × 10^5 M^−1
kq (bimolecular quenching rate constant) ([3]; 317 K): 2.45e+13 M⁻¹ s⁻¹
n (number of binding sites) ([3]; 317 K): 1.02 ± 0.01
ΔH° ([3]; van't Hoff analysis, 289–317 K): −7.85 ± 0.71 kJmol^−1
ΔS° ([3]; van't Hoff analysis, 289–317 K): 72.2 ± 2.3 J/(mol·K)
